# Experimental data taken from US20100076022A1, “NOVEL POLYMORPHS OF RIMONABANT” (HETERO DRUGS LIMITED, priority 2006, published 2010).
# How the values were obtained:
# [1] = stability of the solid form over time; type: physicochemical; details: test conditions not given
# [2] = dissolution rate of the solid form; type: physicochemical; details: amorphous form compared with crystalline form; test conditions not given
stability [1],dissolution rate [2],SMILES
highly stable,better dissolution rate,Cc1c(C(=O)NN2CCCCC2)nn(-c2ccc(Cl)cc2Cl)c1-c1ccc(Cl)cc1 [amorphous rimonabant form]
stable over time,,Cc1c(C(=O)NN2CCCCC2)nn(-c2ccc(Cl)cc2Cl)c1-c1ccc(Cl)cc1.O [crystalline rimonabant hydrate]
